Measured values from ChEMBL document CHEMBL3856231 (J Med Chem, 2016).
Calls of active or inactive are those of the source. The rule behind the calls is not given here.

Assays:
[1] = Clearance in Sprague-Dawley rat at 1 mg/kg, iv by LC/MS/MS analysis; assay type: ADME, organism-based; details: in vivo
[2] = Clearance in cynomolgus monkey at 1 mg/kg, iv by LC/MS/MS analysis; assay type: ADME, organism-based, Macaca fascicularis; details: in vivo
[3] = Half life in CD-1 mouse liver microsomes by LC/MS/MS analysis; assay type: ADME
[4] = Half life in rat liver microsomes by LC/MS/MS analysis; assay type: ADME
[5] = molecular target: Voltage-gated inwardly rectifying potassium channel KCNH2 (Homo sapiens, UniProt Q12809); assay: Inhibition of human ERG
Sequence of Voltage-gated inwardly rectifying potassium channel KCNH2 (Q12809 whole entry): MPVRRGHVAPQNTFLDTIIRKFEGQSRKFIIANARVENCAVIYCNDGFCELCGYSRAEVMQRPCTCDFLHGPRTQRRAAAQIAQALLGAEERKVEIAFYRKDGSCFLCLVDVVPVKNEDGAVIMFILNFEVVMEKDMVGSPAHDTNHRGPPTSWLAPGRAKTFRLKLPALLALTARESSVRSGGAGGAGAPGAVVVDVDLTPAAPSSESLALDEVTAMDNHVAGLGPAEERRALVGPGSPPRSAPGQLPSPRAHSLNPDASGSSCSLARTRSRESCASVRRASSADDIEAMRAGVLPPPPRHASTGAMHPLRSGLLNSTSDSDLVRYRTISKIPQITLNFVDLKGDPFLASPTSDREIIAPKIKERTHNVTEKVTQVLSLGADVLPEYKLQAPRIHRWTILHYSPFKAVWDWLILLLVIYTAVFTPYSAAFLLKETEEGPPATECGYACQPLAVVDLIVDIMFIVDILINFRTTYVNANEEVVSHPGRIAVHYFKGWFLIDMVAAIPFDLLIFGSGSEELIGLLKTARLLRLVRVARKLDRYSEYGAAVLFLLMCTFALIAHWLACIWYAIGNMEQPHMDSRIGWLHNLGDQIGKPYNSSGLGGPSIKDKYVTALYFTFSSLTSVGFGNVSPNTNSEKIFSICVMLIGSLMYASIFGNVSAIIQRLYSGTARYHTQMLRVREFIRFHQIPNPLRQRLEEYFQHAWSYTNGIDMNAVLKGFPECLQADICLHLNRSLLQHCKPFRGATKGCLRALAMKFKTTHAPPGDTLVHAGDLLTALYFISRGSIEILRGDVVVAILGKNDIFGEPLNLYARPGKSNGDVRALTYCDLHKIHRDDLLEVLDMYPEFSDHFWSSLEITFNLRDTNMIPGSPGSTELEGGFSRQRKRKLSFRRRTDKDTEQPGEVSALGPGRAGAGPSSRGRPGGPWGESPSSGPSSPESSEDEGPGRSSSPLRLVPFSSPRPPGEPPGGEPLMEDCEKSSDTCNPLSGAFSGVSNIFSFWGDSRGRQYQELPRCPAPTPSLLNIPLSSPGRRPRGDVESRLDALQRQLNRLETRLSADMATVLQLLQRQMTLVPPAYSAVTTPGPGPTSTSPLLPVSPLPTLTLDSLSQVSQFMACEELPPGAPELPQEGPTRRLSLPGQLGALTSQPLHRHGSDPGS

[6] = molecular target: Cytochrome P450 2C19 (Homo sapiens, UniProt P33261); assay: Inhibition of CYP2C19 in human liver microsomes using S-mephenytoin as substrate in presence of NADPH by LC/MS/MS analysis; assay type: ADME
Sequence of Cytochrome P450 2C19 (P33261 whole entry): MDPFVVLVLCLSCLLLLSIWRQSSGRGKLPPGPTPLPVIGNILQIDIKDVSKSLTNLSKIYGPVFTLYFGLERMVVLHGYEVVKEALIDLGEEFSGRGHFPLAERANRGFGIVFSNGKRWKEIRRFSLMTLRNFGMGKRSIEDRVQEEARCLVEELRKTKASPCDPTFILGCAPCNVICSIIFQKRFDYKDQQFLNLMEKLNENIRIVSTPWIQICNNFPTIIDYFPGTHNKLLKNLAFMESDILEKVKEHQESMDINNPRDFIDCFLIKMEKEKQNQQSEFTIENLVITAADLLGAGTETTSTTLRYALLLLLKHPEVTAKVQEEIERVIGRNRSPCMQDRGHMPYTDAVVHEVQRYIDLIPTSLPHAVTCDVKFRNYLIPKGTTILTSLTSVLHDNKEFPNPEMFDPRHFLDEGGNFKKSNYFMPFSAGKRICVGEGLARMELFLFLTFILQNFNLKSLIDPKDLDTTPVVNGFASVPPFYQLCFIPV

[7] = Apparent permeability from apical to basolateral side in human Caco2 cells; assay type: ADME, cell-based; details: Caco-2
[8] = Half life in Sprague-Dawley rat at 1 mg/kg, iv by LC/MS/MS analysis; assay type: ADME, organism-based; details: in vivo
[9] = AUC (0 to infinity) in CD-1 mouse at 1 mg/kg, iv by LC/MS/MS analysis; assay type: ADME, organism-based; set-up: dose 1 mg/kg, time infinity, route intravenous; details: in vivo
[10] = AUC (0 to infinity) in Sprague-Dawley rat at 1 mg/kg, iv by LC/MS/MS analysis; assay type: ADME, organism-based; set-up: dose 1 mg/kg, time infinity, route intravenous; details: in vivo
[11] = Volume of distribution in Sprague-Dawley rat at 1 mg/kg, iv by LC/MS/MS analysis; assay type: ADME, organism-based; details: in vivo
[12] = Cmax in CD-1 mouse at 10 mg/kg, po by LC/MS/MS analysis; assay type: ADME, organism-based; set-up: dose 10 mg/kg, route oral; details: in vivo
[13] = Cmax in Sprague-Dawley rat at 5 mg/kg, po by LC/MS/MS analysis; assay type: ADME, organism-based; set-up: dose 5 mg/kg, route oral; details: in vivo
[14] = Tmax in CD-1 mouse at 10 mg/kg, po by LC/MS/MS analysis; assay type: ADME, organism-based; details: in vivo
[15] = Tmax in cynomolgus monkey at 10 mg/kg, po by LC/MS/MS analysis; assay type: ADME, organism-based, Macaca fascicularis; details: in vivo
[16] = AUC (0 to infinity) in CD-1 mouse at 10 mg/kg, po by LC/MS/MS analysis; assay type: ADME, organism-based; set-up: dose 10 mg/kg, time infinity, route oral; details: in vivo
[17] = Oral bioavailability in cynomolgus monkey at 10 mg/kg by LC/MS/MS analysis; assay type: ADME, organism-based, Macaca fascicularis; details: in vivo
[18] = Cmax in Sprague-Dawley rat brain at 30 mg/kg, po by LC/MS/MS analysis; assay type: ADME, organism-based; set-up: dose 30 mg/kg, route oral
[19] = Cmax in Sprague-Dawley rat plasma at 30 mg/kg, po by LC/MS/MS analysis; assay type: ADME, organism-based; set-up: dose 30 mg/kg, route oral
[20] = AUC (0 to 48 hrs) in Sprague-Dawley rat plasma at 30 mg/kg, po by LC/MS/MS analysis; assay type: ADME, organism-based; set-up: time < 48 hr, dose 30 mg/kg, route oral
[21] = Dose normalized AUC in Sprague-Dawley rat at 5 mg/kg, po by LC/MS/MS analysis; assay type: ADME, organism-based; details: in vivo
[22] = (§1) Cytotoxicity against human NCI-H3122 cells expressing EML4-ALK assessed as cell growth inhibition; assay type: functional, cell-based
[23] = test system: NCI-H3122; assay: as §1; assay type: functional, cell-based
[24] = test system: Mus musculus; assay: Inhibition of NPM-ALK phosphorylation in human SUP-M2 cells xenografted in mouse at 30 mg/kg, po administered as single dose measured upto 12 hrs; assay type: functional, organism-based
[25] = Drug level in tumor of NPM-ALK expressing human SUP-M2 cells xenografted mouse at 30 mg/kg, po administered as single dose measured at 2 hrs by LC-MS/MS analysis; assay type: ADME, organism-based, Neoplasm; details: read-out: Drug uptake
[26] = Drug level in plasma of NPM-ALK expressing human SUP-M2 cells xenografted mouse at 30 mg/kg, po administered as single dose measured at 6 hrs by LC-MS/MS analysis; assay type: ADME, organism-based
[27] = Drug level in tumor of NPM-ALK expressing human SUP-M2 cells xenografted mouse at 30 mg/kg, po administered as single dose measured at 6 hrs by LC-MS/MS analysis; assay type: ADME, organism-based, Neoplasm; details: read-out: Drug uptake
[28] = Drug level in tumor of NPM-ALK expressing human SUP-M2 cells xenografted mouse at 30 mg/kg, po administered as single dose measured at 12 hrs by LC-MS/MS analysis; assay type: ADME, organism-based, Neoplasm; details: read-out: Drug uptake
[29] = Drug level in plasma of NPM-ALK expressing human SUP-M2 cells xenografted mouse at 30 mg/kg, po administered as single dose measured at 24 hrs by LC-MS/MS analysis; assay type: ADME, organism-based
[30] = test system: SUP-M2; assay: Antitumor activity against human SUP-M2 cells expressing NPM-ALK xenografted in po dosed SCID-Beige mouse assessed as reduction in tumor volume administered twice daily for 12 days measured during compound dosing; assay type: functional, organism-based
[31] = test system: NCI-H2228; assay: Antitumor activity against human NCI-H2228 cells expressing EML4-ALK xenografted in SCID-Beige mouse assessed as reduction in tumor volume at 30 mg/kg, po bid administered for 11 days measured during compound dosing; assay type: functional, organism-based
[32] = test system: NCI-H2228; assay: Antitumor activity against human NCI-H2228 cells expressing EML4-ALK xenografted in SCID-Beige mouse assessed as reduction in tumor volume at 55 mg/kg, po bid administered for 11 days measured during compound dosing; assay type: functional, organism-based
[33] = test system: Mus musculus; assay: Inhibition of FAK phosphorylation in human CWR22 cells xenografted in Nu/Nu mouse at 55 mg/kg, po administered as single dose by immunoblot analysis; assay type: functional, organism-based; details: TDE = time-dependent effect
[34] = Drug level in plasma of FAK expressing human CWR22 cells xenografted Nu/Nu mouse at 55 mg/kg, po administered as single dose measured at 2 hrs by LC-MS/MS analysis; assay type: ADME, organism-based
[35] = Drug level in tumor of FAK expressing human CWR22 cells xenografted Nu/Nu mouse at 55 mg/kg, po administered as single dose measured at 2 hrs by LC-MS/MS analysis; assay type: ADME, organism-based, Neoplasm; details: read-out: Drug uptake
[36] = Drug level in plasma of FAK expressing human CWR22 cells xenografted Nu/Nu mouse at 55 mg/kg, po administered as single dose measured at 24 hrs by LC-MS/MS analysis; assay type: ADME, organism-based
[37] = Drug level in tumor of FAK expressing human CWR22 cells xenografted Nu/Nu mouse at 55 mg/kg, po administered as single dose measured at 24 hrs by LC-MS/MS analysis; assay type: ADME, organism-based, Neoplasm; details: read-out: Drug uptake
[38] = Antitumor activity against human HCC827 cells expressing activated FAK xenografted in SCID-Beige mouse assessed as incidence of partial tumor regression at 55 mg/kg, po bid administered for 28 days; assay type: functional
[39] = test system: Mus musculus; assay: Toxicity in SCID-Beige mouse xenografted with human HCC827 cells expressing activated FAK assessed as overt toxicity at 30 to 55 mg/kg, po bid administered for 28 days; assay type: organism-based; details: in vivo, 672 h
[40] = test system: CTG-0142; assay: Antitumor activity against human CTG-0142 cells expressing activated FAK xenografted in mouse assessed as tumor stasis at 55 mg/kg, po bid administered for 28 days measured during compound dosing; assay type: functional, organism-based
[41] = Antitumor activity against human CTG-0785 cells expressing activated FAK xenografted in mouse assessed as tumor growth inhibition at 55 mg/kg, po bid administered for 13 days measured during compound dosing; assay type: functional; details: CTG-0785, po, 312 h, read-out: TGI
[42] = test system: IBC; assay: Antitumor activity against human IBC cells xenografted in SCID mouse; assay type: functional

## CNC(=O)c1ccccc1Nc1nc(Nc2ccc3c(c2OC)CCC[C@H](N2CCN(CCO)CC2)C3)ncc1Cl [CEP-37440]
[1]
  clearance: 0.18 to 0.24 L/h/kg
[2]
  clearance: 1.8 L/h/kg
[3]
  half-life: 0.667 h
[4]
  half-life: 0.667 h
[5]
  IC50: > 10 µM
[6]
  IC50: > 5.6 µM
[7]
  Papp A→B: > 10 nm/s
[8]
  half-life: 2 h
[9]
  AUC(0-inf): 1.61 µg·h/mL
[10]
  AUC(0-inf): 4 µg·h/mL
[11]
  Vd: 0.8 L/kg
[12]
  Cmax: 1.53 µg/mL
[13]
  Cmax: 1.34 µg/mL
[14]
  Tmax: 2 h
[15]
  Tmax: 6 h
[16]
  AUC(0-inf): 16.4 µg·h/mL
[17]
  bioavailability: 50%
[18]
  Cmax: 3160 ng/g
[19]
  Cmax: 2120 ng/g
[20]
  AUC(0-t) at 48 h: 31.5 µg·h/mL
[21]
  AUC/dose: 1672 ng·h/mL
[22]
  IC50: 1.78 µM
[23]
  growth inhibition (GI): Dose-dependent effect
[24]
  inhibition: Active
[25]
  concentration at 2 h: 6040 ng/g
[26]
  concentration at 6 h: 3.35 µg/mL
[27]
  concentration at 6 h: 6930 ng/g
[28]
  concentration at 12 h: 8580 ng/g
[29]
  concentration at 24 h: 1.16 µg/mL
[30]
  Activity: Dose-dependent effect
[31]
  Activity: Active
[32]
  Activity: Active
[33]
  inhibition: Tde
[34]
  concentration at 2 h: 4.13 µg/mL
[35]
  concentration at 2 h: 6070 ng/g
[36]
  concentration at 24 h: 1.19 µg/mL
[37]
  concentration at 24 h: 8680 ng/g
[38]
  Activity: 60%
[39]
  Activity: Non-Toxic
[40]
  Activity: Active
[41]
  inhibition in vivo at 55 mg/kg: 70%
[42]
  Activity: Dose-dependent effect
